# Test results: patent publication US11400389B2, “Marsdenia cundurango creeper extracts, cosmetic compositions comprising them and cosmetic uses of same” (ISP Investments LLC, priority 2017, dated 2022)
# No end group written: not given here.
# Key:
# LAMP2 = test: Expression of the LAMP2 autophagy marker in skin biopsies with or without multi-toxin (cigarette smoke) stress; format: cell-based; settings: human skin biopsies, extract 1% in a cream, EGCG 200 μg/ml
# Protocol: The objective of this study was to observe the effect of treatment by condurango on skin biopsies previously subjected to multi-toxin stress, brought about by incubating the biopsies with cigarette smoke.
# The selected marker is the lysosomal membrane protein LAMP2A, which is involved in the process of autophagy, one of the main pathways of degradation of cellular waste.
# Human skin biopsies in culture were placed in a sealed chamber saturated with cigarette smoke for 30 minutes. This stress was referred to as multi-toxic stress due to the cigarette smoke being composed of toxic molecules from different classes. After the stress, the biopsies were placed in culture and treated by the condurango extract obtained from example 4 and formulated to 1% (mass/mass) in a cream, as in example 5. […]
# At the end of this incubation, the protein LAMP2 was detected by immunomarking on skin biopsy sections.
# This technique was performed on paraffin skin sections incubated in the presence of the anti-LAMP2 antibody (rabbit polyclonal antibody, Abcam) After 1 hour of incubation followed by rinsings, the sections were incubated in the presence of secondary anti-rabbit antibody coupled with a fluorophore (Alexa Fluor® 488, Invitrogen). The sections were then examined under epi-fluorescence microscope (Zeiss Axiovert 200M microscope). The expression of LAMP2 was then observed and quantified at epidermis level.
# interleukin-6 (IL-6) = test: Salting-out of interleukin-6 by skin biopsies subjected to stress by substance P (ELISA); format: cell-based, human; settings: substance P 10^−6 M in culture medium, 48 hours, extract 1% in a cream where applied
# Description: The objective of this experiment was to study the effect of the condurango extract on skin biopsies subjected to a stress by the substance P. The substance P was the central mediator of neurogenic inflammation (inflammation mediated via the peripheral nervous system). The neuropeptide is involved in various processes, including acute or chronic inflammation, and the perception of pain or nociception. The effect of the stress, whether or not brought about in the presence of the condurango extract, was studied by measuring the salting-out of interleukin-6 (IL-6), a cytokine synthesised by skin cells and considered to be a nociceptive inflammation mediator (O'Donovan A et al. Clinical anxiety, cortisol and interleukin-6: evidence for specificity in emotion-biology relationships. Brain Behav Immun. 2010 October; 24(7):1074-7).
# Skin biopsies in culture were treated with the condurango extract obtained from example 4, formulated to 1% in a cream, as in example 5, with or without addition of substance P at 10^−6 M in the culture medium.
# After 48 hours of incubation, the culture medium of the biopsies was collected and the level of IL-6 was measured by ELISA.
Compound,increase of LAMP2 after multi-toxic stress (LAMP2; cigarette smoke 30 minutes then treatment),"rise in the marking intensity of LAMP2, in the absence of stress (LAMP2; no stress, 48 hours)",level of IL-6 compared to the non-stressed control (interleukin-6 (IL-6))
"O=C(O[C@@H]1Cc2c(O)cc(O)cc2O[C@@H]1c1cc(O)c(O)c(O)c1)c1cc(O)c(O)c(O)c1 [EGCG, epigallocatechin gallate]",+26%,+27%,
"substance P: neuropeptide, central mediator of neurogenic inflammation, used as stressor (RPKPQQFFGLM; ends and bridges not checked; UniProt P20366 58-68, looked up)",,,+68%
